The values that follow come from patent US20230193350A1, “METHOD FOR DIAGNOSING AND TREATING BLOOD CANCER” (Ohara Pharmaceutical Co., Ltd., priority 2020, published 2023).

What all share (format): cell-based
One assay concerns DUSP5 mRNA. The assay can be described thus: Expression amount of DUSP5 mRNA in MT-1 cells by RT-PCR. The following applies: 4 days culture, FIG. 2A. The procedure: (§1) MT-1 cells (ATL-derived cell lines) were purchased from JCRB Cell Bank and cultured in an RPMI1640 culture solution comprising 10% fetal bovine serum (FBS) and 1% penicillin-streptomycin in an environment of 37° C. and 5% CO2. The culture was started by additions of OR21, a DNA methyl transferase inhibitor and/or EPZ-6438, a histone methyl transferase inhibitor to a culture solution of MT-1 cells, exchanged with a fresh culture solution comprising the inhibitors after 2 days, and further cultured for 2 days. After culturing, the cells were collected and total RNA was extracted, and the expression amount of DUSP5 mRNA was measured by RT-PCR using SYBR @ Green (Takara Bio).

A further assay deals with DUSP5 protein. Kind of assay: Expression amount of DUSP5 protein in MT-1 cells by Western blotting. The note with it: 4 days culture, FIG. 2B. How it is done:
as §1, with “dissolved,” for “total RNA was extracted,”, “protein” for “mRNA”, “Western blotting.” for “RT-PCR using SYBR @ Green (Takara Bio).”
A general note: Immunoblotting shows a protein as a band on a membrane.

The test system of the next assay is MT-1 cells. The assay can be described thus: Proliferation of MT-1 cells (Cell Countdown Kit-8, formazan absorbance). The following applies: 4 days, FIG. 3. How it is done:
MT-1 cells (ATL-derived cell lines) were purchased from JCRB Cell Bank. MT-1 cells were seeded on a 24-well plate at 0.4×10^5 cells/0.9 mL/well and cultured for 3 hours in an RPMI1640 culture solution comprising 10% fetal bovine serum (FBS) and 1% penicillin-streptomycin in an environment of 37° C. and 5% CO2. Then, OR21, a DNA methyl transferase inhibitor and/or EPZ-6438 or DS-3201b, histone methyl transferase inhibitors were dissolved in the same culture solution, and 0.1 mL thereof was added to each well, and cultured for 4 days while exchanging with a fresh culture solution comprising each inhibitor every two days. The final concentrations of the inhibitors in the culture solution were 0.5 μM for OR21, 2.5 μM for EPZ-6438, and 0.1 μM, 0.5 μM, and 2.5 μM for DS-3201b. In addition, groups of single and combined additions of each inhibitor were provided. The effect of each inhibitor on cell proliferation was measured using Cell Countdown Kit-8 (Dojindo Laboratories). The water-soluble formazan in each well produced from reduction of tetrazolium salt […] was measured at two wavelength (450 nm/620 nm) using a plate reader (Varioskan Flash, Thermo-Fisher Scientific). The results are expressed as relative values with the absorbance of the wells in which no inhibitor was added as 100%.

`CC[Si](CC)(CC)OC[C@H]1O[C@@H](n2cnc(N)nc2=O)C[C@@H]1O` [OR21, 5′-O-triethylsilyl-2′-deoxy-5-azacytidine]: the “DUSP5 mRNA expression” value in the assay on DUSP5 mRNA (OR21 at 0.1 μM and 0.5 μM) is listed as “enhanced DUSP5 mRNA expression in a concentration-dependent manner”. For the same compound, the “expression amount of DUSP5 protein” value in the assay with DUSP5 protein (OR21 0.5 μM) is “apparent increase”. The “proliferation of MT-1 cells” value in the assay on MT-1 cells (OR21 0.5 μM) is reported as “exhibited an effect of inhibiting proliferation”.
As for `CCN(c1cc(-c2ccc(CN3CCOCC3)cc2)cc(C(=O)NCc2c(C)cc(C)[nH]c2=O)c1C)C1CCOCC1` [EPZ-6438, N-[(4,6-dimethyl-2-oxo-1,2-dihydropyridin-3-yl)methyl]-5-[ethyl(tetrahydro-2H-pyran-4-yl)amino]-4-methyl-4′-(morpholin-4-ylmethyl) biphenyl-3-carboxamide], the “DUSP5 mRNA expression” value in the assay on DUSP5 mRNA (EPZ-6438 at 0.5 μM and 2.5 μM) is listed as “almost no effect”. Besides, in the assay on DUSP5 protein (EPZ-6438 2.5 μM), the “expression amount of DUSP5 protein” value was “almost no effect”. Further, the “proliferation of MT-1 cells” value in the assay with MT-1 cells (EPZ-6438 2.5 μM) is listed as “hardly affected”.
As for `Cc1cc(C)c(CNC(=O)c2cc(Cl)c3c(c2C)O[C@@](C)([C@H]2CC[C@H](N(C)C)CC2)O3)c(=O)[nH]1.Cc1ccc(S(=O)(=O)O)cc1` [DS-3201b, 4-methylbenzene-1-sulfonic acid (2R)-7-chloro-2-[(trans)-4-(dimethylamino)cyclohexyl]-N-[(4,6-dimethyl-2-oxo-1,2-dihydropyridin-3-yl)methyl]-2,4-dimethyl-2H-1,3-benzodioxole-5-carboxamide], the “proliferation of MT-1 cells” value in the assay on MT-1 cells (DS-3201b 0.1 μM to 2.5 μM) is “hardly affected”.
